Data: patent US20060093575A1, “Oxaliplatin anti-resistance agent” (CENTRE NATIONAL DE LA RECHERCHE SCIENTIFIQUE, priority 2002, published 2006)
Read-outs that look alike come from different tables or passages of the source.

What was measured:
HCT116 = test: colorimetric cell growth test, medication incubated 48 hours; conditions: for relative resistance (IC50 resistant clone / IC50 parental clone): HCT116 (parental clone); for IC50: read-out: IC50 (concentration that reduces cell growth by 50%)
SW620/R = test: as above; conditions: for relative resistance (IC50 resistant clone / IC50 parental clone): SW620/R versus SW620; for crossed resistance: SW620R versus SW620; for IC50: read-out: IC50 (concentration that reduces cell growth by 50%)
HCT116/R = test: as above; conditions: for relative resistance (IC50 resistant clone / IC50 parental clone): HCT116/R versus HCT116; for crossed resistance: HCT116R versus HCT116; for IC50: read-out: IC50 (concentration that reduces cell growth by 50%)
SW620 = test: as above; conditions: for relative resistance (IC50 resistant clone / IC50 parental clone): SW620 (parental clone); for IC50: read-out: IC50 (concentration that reduces cell growth by 50%)
HCT116/Rev2 = test: oxaliplatin resistance of variant line versus HCT116/S; type: cell-based; conditions: HCT116/Rev2, after culture without oxaliplatin for 15 months
Text: the variant HCT116/Rev2 derived from the line HCT116/R2 after culture in the absence of oxaliplatin for 15 months. This variant is characterized by an only partial loss of oxaliplatin resistance (variant HCT116/Rev2 is 16 times more resistant than line HCT116/S).

HCT116/Rev1 = test: oxaliplatin sensitivity of variant line versus HCT116/S; type: cell-based; conditions: HCT116/Rev1, after culture without oxaliplatin for 6 months
Text: the variant HCT116/Rev1 derived from the line HCT116/R1 after culture in the absence of oxaliplatin for 6 months.

SW620R [1] = test: degree of apoptosis by cytofluorometry, annexine V labeling; type: cell-based; conditions: treated 48 hours
Experimental: (§1) A control is performed without contact with any medication (Co). The degree of apoptosis is then determined by cytofluorometry using labeling by annexine V. Independently, activation of the apoptosis effector protein Caspase 3 was evaluated in cells HCT116 and HCT116R after treatment for 24 hours with oxaliplatin in order to validate the entry into apoptosis of the cells as observed by cytofluorometry (FIG. 2C).

[2] = system: Bax protein in HCT116 cells; test: detection of Bax by Western blot; type: cell-based; conditions: HCT116, 15 μM for 48 hours (or 50 μM for 24 hours)
Experimental: (§2) Legend to FIG. 1: detection of Bax by Western blot in the absence of, or under the effect of treatment, with oxaliplatin in the HCT116 model. The cells are not treated or treated with oxaliplatin at a level of 15 μM for 48 hours (or 50 μM for 24 hours) before preparation of cell lysates. Tubulin expression is used as a control of equivalent protein deposits.

[3] = system: Bax protein in HCT116R cells; test: detection of Bax by Western blot; type: cell-based; conditions: 15 μM for 48 hours (or 50 μM for 24 hours)
Experimental: as §2

HCT116R [4] = conditions: treated 48 hours
Experimental: A control is performed without contact with any medication (Co).

Bak in HCT116/R2 cells = test: Bak activation, active-conformation antibody, flow cytometry; type: cell-based; conditions: HCT116/R2, 12, 24 or 48 hours with 15 μM
Experimental: (§3) Legend to FIGS. 5A to 5E: Detection of activation of Bak by an antibody specific for the active conformation of Bak and intracellular analysis by flow cytometry. The cells are fixed, made permeable and then incubated with the antibody specific for the active conformation of […]. Finally visualization is carried out by incubation with the secondary antibody coupled to FITC. Labeling of untreated cells is shown by the curve in the fine black line. That of treated cells (12, 24 or 48 hours with 15 μM oxaliplatin) is shown by the curves in the thick black line. The appearance of strongly labeled cells (curves in the thick black line shifted to the right) gives evidence of activation of Bak. This experiment was reproduced two times.

Bak in HCT116/R1 cells = test: as above; type: cell-based; conditions: HCT116/R1, 12, 24 or 48 hours with 15 μM
Experimental: as §3

Bak in HCT116/Rev1 cells = test: as above; type: cell-based; conditions: HCT116/Rev1, 12, 24 or 48 hours with 15 μM
Experimental: as §3

Bak in HCT116/Rev2 cells = test: as above; type: cell-based; conditions: HCT116/Rev2, 12, 24 or 48 hours with 15 μM
Experimental: as §3

Bax in HCT116/R1 cells [5] = test: overall level of Bax expression on exposure to oxaliplatin; type: cell-based
Text: (§4) The overall level of Bax expression is equivalent for the lines HCT116/S, HCT116/R1 and HCT116/Rev1.

Bax in HCT116/S cells = test: as above; type: cell-based
Text: as §4

Bax in HCT116/Rev1 cells [6] = test: as above; type: cell-based
Text: as §4

[7] = system: Caspase 3 in HCT116R cells; test: activation of apoptosis effector protein Caspase 3; type: cell-based; conditions: treated 24 hours
Experimental: as §1

Bax in HCT116/R1 cells [8] = test: Bax activation, active-conformation antibody, flow cytometry; type: cell-based; conditions: HCT116/R1, 12, 24 or 48 hours with 15 μM, compared to HCT116/S
Experimental: (§5) Legend to FIGS. 4A to 4C: Detection of activation of Bax by an antibody specific for the active conformation of Bax and intracellular analysis by flow cytometry. The cells are fixed, permeabilized and then incubated with the antibody specific for the active conformation of […]. Finally visualization is carried out by incubation with the secondary antibody coupled with FITC. The labeling of untreated cells is shown by the curve in fine black line. That of treated cells (12, 24 or 48 hours with 15 μM oxaliplatin) is shown by the curves in thick black line. The appearance of strongly labeled cells (curves in thick black line shifted to the right) gives evidence of activation of Bax.

Bax in HCT116/Rev1 cells [9] = test: as above; type: cell-based; conditions: HCT116/Rev1, 12, 24 or 48 hours with 15 μM
Experimental: as §5

HCT116/R1 = test: oxaliplatin resistance of variant line versus HCT116/S; type: cell-based; conditions: HCT116/R1 clone
Text: the line HCT116/R1 derived from the line HCT116 after acquisition of oxaliplatin resistance and cloning (corresponding to a clone 30 times more resistant than the sensitive reference line HCT116/S),

SW620R [10] = test: degree of apoptosis by cytofluorometry, Mitocapture dye; type: cell-based; conditions: treated 24 hours
Experimental: (§6) Legend to FIGS. 3A and 3B: cells HCT116 (and R) and SW620 (and R) are treated, prior to determination of the degree of apoptosis, for 24 hours by arsenic trioxide (As), lonidamine (LND) or are left without treatment (control, Co). The degree of apoptosis is then determined by cytofluorometry after labeling with the dye “Mitocapture” which fluoresces differently in apoptotic cells and intact cells (with relation to mitochondrial integrity).

HCT116R [11] = test: as above; type: cell-based; conditions: treated 24 hours
Experimental: as §6

[12] = HCT116, 48 hours, average ± SD, at least three experiments
[13] = SW620/R, 48 hours, average ± SD, at least three experiments
[14] = HCT116/R, 48 hours, average ± SD, at least three experiments
[15] = SW620, 48 hours, average ± SD, at least three experiments

## N.N.[Cl][Pt][Cl] [Cisplatin]
HCT116
  relative resistance (IC50 resistant clone / IC50 parental clone): (1.0)
HCT116; [12]
  IC50: 4.7 ± 1.8 µM
SW620/R
  relative resistance (IC50 resistant clone / IC50 parental clone): (1.4)
  crossed resistance: very little or no crossed resistance
SW620/R; [13]
  IC50: 9 ± 1.7 µM
HCT116/R
  relative resistance (IC50 resistant clone / IC50 parental clone): (2.9)
  crossed resistance: very little or no crossed resistance
HCT116/R; [14]
  IC50: 13.4 ± 6.6 µM
SW620
  relative resistance (IC50 resistant clone / IC50 parental clone): (1.0)
SW620; [15]
  IC50: 7 ± 1.7 µM

## CCc1c2c(nc3ccc(OC(=O)N4CCC(N5CCCCC5)CC4)cc13)-c1cc3c(c(=O)n1C2)COC(=O)[C@]3(O)CC [Irinotecan]
HCT116; Homo sapiens, HCT-116, 48 h
  IC50: 7.7 ± 3.8 µM
SW620/R; Homo sapiens, SW-620, 48 h
  IC50: 11.7 ± 2.5 µM
SW620/R
  crossed resistance: very little or no crossed resistance
HCT116/R
  crossed resistance: very little or no crossed resistance
HCT116/R; Homo sapiens, HCT-116, 48 h
  IC50: 9.5 ± 4.2 µM
SW620; Homo sapiens, SW-620, 48 h
  IC50: 23.3 ± 0.6 µM

## O=C1[O][Pt]2([NH][C@@H]3CCCC[C@H]3[NH]2)[O]C1=O [Oxaliplatin, [(1R, 2R)-1,2-cyclohexanediamine-N,N′] [oxalato (2-)-O,O′] platinum]
HCT116
  relative resistance (IC50 resistant clone / IC50 parental clone): 1.0
HCT116; [12]
  IC50: 0.32 ± 0.08 µM
SW620/R
  relative resistance (IC50 resistant clone / IC50 parental clone): 18.3
SW620/R; SW620R versus SW620, as stated in text
  times more resistant than the original line: 20 times
SW620/R; [13]
  IC50: 62.3 ± 12.9 µM
HCT116/R
  relative resistance (IC50 resistant clone / IC50 parental clone): 68.4
HCT116/R; [14]
  IC50: 21.9 ± 6.3 µM
HCT116/Rev2
  times more resistant than line HCT116/S: 16 times
HCT116/Rev1
  oxaliplatin sensitivity: comparable to HCT116/S
SW620R [1]
  induction of apoptosis (annexine V): resist induction of apoptosis
[2]
  Bax protein expression (Western blot): over-expresses it
[3]
  Bax protein expression (Western blot): does not express the Bax protein
HCT116R [4]
  induction of apoptosis (annexine V): resist induction of apoptosis
SW620
  relative resistance (IC50 resistant clone / IC50 parental clone): 1.0
SW620; [15]
  IC50: 3.4 ± 0.6 µM
Bak in HCT116/R2 cells
  activation of Bak: delayed
Bak in HCT116/R1 cells
  activation of Bak: delayed
Bak in HCT116/Rev1 cells
  activation of Bak: repeat the level of activation of Bak of the sensitive line HCT116/S
Bak in HCT116/Rev2 cells
  activation of Bak: repeat the level of activation of Bak of the sensitive line HCT116/S
Bax in HCT116/R1 cells [5]
  overall level of Bax expression: induces an over-expression of Bax
Bax in HCT116/S cells
  overall level of Bax expression: induces an over-expression of Bax
Bax in HCT116/Rev1 cells [6]
  overall level of Bax expression: induces an over-expression of Bax
[7]
  activation of caspase 3: lack of activation of caspase 3
Bax in HCT116/R1 cells [8]
  activation of Bax: reduced and delayed
Bax in HCT116/Rev1 cells [9]
  activation of Bax: return to early activation of Bax
HCT116/R1
  times more resistant than sensitive reference line HCT116/S: 30 times

## O=C(O)c1nn(Cc2ccc(Cl)cc2Cl)c2ccccc12 [lonidamine]
SW620R [10]
  apoptotic induction (Mitocapture): resistant to apoptotic induction
HCT116R [11]
  apoptotic induction (Mitocapture): resistant to apoptotic induction
